The source of these data is ChEMBL document CHEMBL4118278, “Design, synthesis and biological evaluation of deuterated Vismodegib for improving pharmacokinetic properties” (Bioorg Med Chem Lett, 2018).

Type in all cases: ADME, organism-based
What all share (settings): in vivo

Data set [1] in a line: Cmax in CD-1 mouse at 5 mg/kg, po administered as single dose by LC-MS/MS analysis. Details: dose 5 mg/kg, route oral.
A short description of data set [2]: Half life in CD-1 mouse at 5 mg/kg, po administered as single dose by LC-MS/MS analysis.
A short description of data set [3]: AUC (0 to infinity) in CD-1 mouse at 5 mg/kg, po administered as single dose by LC-MS/MS analysis. Details: dose 5 mg/kg, route oral, time infinity.
Data set [4] in a line: AUC (0 to t) in CD-1 mouse at 5 mg/kg, po administered as single dose by LC-MS/MS analysis.
The nature of data set [5]: Tmax in CD-1 mouse at 5 mg/kg, po administered as single dose by LC-MS/MS analysis.

In turn, `[2H]c1nc(-c2cc(NC(=O)c3ccc(S(C)(=O)=O)cc3Cl)ccc2Cl)c([2H])c([2H])c1[2H]` registered a Cmax in data set [1] of 1870 ng/mL. Further, in data set [2], the half-life was 8.55 h. The compound further gave an AUC(0-inf) in data set [3] of 17100 ng·h/mL. This compound also yielded an AUC(0-t) in data set [4] of 6510 ng·h/mL. Besides, the Tmax in data set [5] came to 1 h.

In the case of `[2H]c1cc(Cl)c(-c2nc([2H])c([2H])c([2H])c2[2H])c([2H])c1NC(=O)c1ccc(S(C)(=O)=O)cc1Cl`, the Cmax in data set [1] was 972 ng/mL. In data set [2], this compound showed a half-life of 2.56 h. The same compound showed an AUC(0-inf) in data set [3] of 6110 ng·h/mL. Besides, the AUC(0-t) in data set [4] was found to be 6110 ng·h/mL. In data set [5], the Tmax was found to be 1 h.

The compound `[2H]c1cc(Cl)c(-c2ccccn2)c([2H])c1NC(=O)c1ccc(S(C)(=O)=O)cc1Cl` showed a Cmax in data set [1] of 1610 ng/mL. For the same compound, in data set [2], the half-life was 2.82 h. The same compound returned an AUC(0-inf) in data set [3] of 8290 ng·h/mL. This compound had an AUC(0-t) in data set [4] of 6280 ng·h/mL. In data set [5], the Tmax stood at 1 h.

With `CS(=O)(=O)c1ccc(C(=O)Nc2ccc(Cl)c(-c3ccccn3)c2)c(Cl)c1` [VISMODEGIB], the peak concentration (Cmax) in data set [1] is 854 ng/mL. Besides, the half-life in data set [2] was 5.62 h. Besides, the AUC(0-inf) in data set [3] was 7660 ng·h/mL. The same compound registered an AUC(0-t) in data set [4] of 4050 ng·h/mL. In data set [5], the Tmax was 1 h.

By Cmax is commonly meant the highest concentration seen after dosing. What is called half-life is how long it takes for the measured level to halve. Read a high half-life as slow loss. As usually defined, the AUC(0-inf) is the area under the concentration-time curve extrapolated to infinity. A lower AUC(0-inf) goes with low exposure. One may read the AUC(0-t) as exposure summed from dosing to a finite time, without extrapolation to infinity. A high value points to more exposure. In general, Tmax refers to the time at which the peak concentration occurs.
